Legend:
[1] = test system: circulating levels of luteinizing hormone (LH); test: Castrated male rat model, circulating luteinizing hormone (LH); assay type: in vivo; details: single intravenous 10 mg/kg dose, castrated male Sprague-Dawley rats, 1 hour after dosing
Description: Vehicle, N=10 rats; Compound n^o 1, N=9 rats.
Vehicle, n=5 rats; Compound n^o 19, n=5 rats.
In humans and rodents, castration is well-precedented to permit heightened, persistent GnRH signaling and consequent elevation of circulating LH. Thus, a castrated rat model is used to provide a broad index for measurement of LH inhibition as a marker of test compound inhibition of the GnRH signaling pathway.
Castrated adult male Sprague-Dawley (SD) rats (150-175 g,) were purchased from Janvier (St Berthevin, France). […] The animals were allowed 2 weeks of postoperative recovery prior to study. Animals were handled on a daily basis. Standard diet and tap water were provided ad libitum. Animal cage litters were changed once a week. On the study day, animals were acclimated to the procedure room for a period of one hour prior to the initiation of the experiment.
Compounds of the invention were formulated as a […] with 90 g/L (2-Hydroxypropyl)-β-CycloDextrin.
After basal sampling (T0) a single dose of compounds of the invention or vehicle was administrated intravenously to rats. Blood was then collected at 60 min post dosing. Blood samples were obtained via tail vein bleed, drawn into EDTA-containing tubes and centrifuged immediately. […] Serum LH levels were determined using radioimmunoas say kit from RIAZEN—Rat LH, Zentech (Liège, Belgium). […]

[2] = test system: circulating levels of testosterone; test: Gonad-intact adult male rat, circulating testosterone; assay type: in vivo; details: single intravenous 50 mg/kg dose, gonad-intact male Sprague-Dawley rats, over 210 minute test period (AUC)

Row | SMILES | circulating LH levels [1] | plasma testosterone levels [2]
1 | Cc1csc(-c2nnc3n2CCN(C(=O)c2ccc(-c4cccs4)cc2)[C@@H]3C)n1 [Compound 19, (R)-(8-methyl-3-(4-methylthiazol-2-yl)-5,6-dihydro-[1,2,4]triazolo[4,3-a]pyrazin-7(8H)-yl)(4-(thiophen-2-yl)phenyl)methanone] | significantly suppressed | –
2 | Cc1nc(-c2nnc3n2CCN(C(=O)c2ccc(-c4cccs4)cc2)[C@@H]3C)cs1 [Compound 1, (R)-(8-methyl-3-(2-methylthiazol-4-yl)-5,6-dihydro-[1,2,4]triazolo[4,3-a]pyrazin-7(8H)-yl)(4-(thiophen-2-yl)phenyl)methanone] | significantly suppressed | significantly suppressed

From patent publication US10941151B2, “Chiral N-acyl-5,6,7(8-substituted)-tetrahydro-[1,2,4]triazolo[4,3-a]pyrazines as selective NK-3 receptor antagonists, pharmaceutical composition, methods for use in NK-3 receptor mediated disorders and chiral synthesis thereof” (Ogeda SA, priority 2011, dated 2021)
